What was measured:
[1] = test system: Influenza strains A/WSN/33 (H1N1); assay: Influenza A/WSN/33 (H1N1) antiviral assay in A549 cells (MUNANA neuraminidase readout); type: cell-based, Influenza A virus (H1N1); human lung carcinoma A549 cells; settings: Influenza A virus, compound 24 h before infection, 250 IU/well, 20 h infection
Description: (§1) EC50 [uM] as Measured Using Two Cell Lines: WSN/33 (H1N1) A549 and MDCK
1. Human lung carcinoma A549 cells (ATCC, Manassas, VA) were plated at a density of 5×10^4 cells/ml (5×10^3 cells/well) in maintenance media (Ham's F12 media supplemented with 10% FBS, 1% penicillin/streptomycin, 1% HEPES, 1% Glutamine and 1% non-essential amino acids (all Mediatech, Manassas, VA) in 96-well plates. After 24 hours, serially diluted compounds in assay media (Ham's F12 supplemented with 0.3FBS, 1% penicillin/streptomycin, 1% HEPES, 1% Glutamine and 1% non-essential amino acids) were added to cells and incubated for an additional 24 hours. Cells were infected with 250 IU/well of Influenza strains A/WSN/33 (H1N1) (Virapur, San Diego CA) and incubated for 20 h at 37° C., 5% CO2. The cell culture supernatant was aspirated off and 50 μl 25 μM 2′-(4-Methylumbelliferyl)-a-D-N-acetylneuraminic acid (MUNANA, Sigma-Aldrich) dissolved in 33 mM MES, pH 6.5 (Emerald Biosystems, Bainbridge Island, WA) was added to the cells. After incubation for 45 min at 30° C., reactions were stopped by addition of 150 μL stop solution (100 mM glycine, pH 10.5, 25% ethanol, all Sigma-Aldrich). Fluorescence was measured with excitation and emission filters of 355 and 460 nm, respectively, on a Victor X3 multi-label plate reader (Perkin Elmer, Waltham, MA). Cytotoxicity of uninfected parallel cultures was determined by addition of 100 μL CellTiter-Glo® reagent (Promega, Madison, WI), and incubation for 10 min at room temperature. Luminescence was measured on a Victor X3 multi-label plate reader.

[2] = test system: Influenza strains A/WSN/33 (H1N1); assay: Influenza A/WSN/33 (H1N1) antiviral assay in MDCK cells (MUNANA neuraminidase readout); type: cell-based; settings: Influenza A virus, in Canis lupus familiaris, compound 24 h before infection, 250 IU/well, 20 h infection
Description: as §1
2. Alternatively, Madin-Darby canine kidney epithelial cells (MDCK, ATCC), were plated at a density of 7.5×10^4 cells/ml (7.5×10^3 cells/well) in maintenance media (DMEM with same supplements as above) in 96-well plates. After 24 hours, serially diluted compounds in assay media (MEM supplemented with 0.3FBS, 1% penicillin/streptomycin, 1% HEPES, 1% Glutamine and 1% non-essential amino acids) were added to cells and incubated for an additional 24 hours. Cells were infected with 250 IU/well of Influenza strains A/WSN/33 (H1N1) and incubated for 20 h at 37° C., 5% CO2. The cell culture supernatant was aspirated off and 50 μL 25 μM 2′-(4-Methylumbelliferyl)-a-D-N-acetyl neuraminic acid (MUNANA, Sigma-Aldrich) dissolved in 33 mM MES, pH 6.5 (Emerald Biosystems, Bainbridge Island, WA) was added to the cells. After incubation for 45 min at 30° C., reactions were stopped by addition of 150 μl stop solution (100 mM glycine, pH 10.5, 25% ethanol, all Sigma-Aldrich). Fluorescence was measured with excitation and emission filters of 355 and 460 nm, respectively, on a Victor X3 multi-label plate reader (Perkin Elmer, Waltham, MA). Cytotoxicity of uninfected parallel cultures was determined by addition of 100 μL CellTiter-Glo® reagent (Promega, Madison, WI), and incubation for 10 min at room temperature. Luminescence was measured on a Victor X3 multi-label plate reader.

Compound `CC(C)OC(=O)OCOP(=O)(OCOC(=O)OC(C)C)OC[C@H]1O[C@@H](c2nc(C(N)=O)ns2)[C@H](O)[C@@H]1O` [Example 6] has an EC50 [1] of 4.66 µM and an EC50 [2] of 1.85 µM.
`NC(=O)c1nc([C@@H]2O[C@H](CO)[C@@H](O)[C@H]2O)sc1F` [Example 3, 2-((2R,3R,4S,5R)-3,4-Dihydroxy-5-(hydroxymethyl)tetrahydrofuran-2-yl)-5-fluorothiazole-4-carboxamide] showed an EC50 [1] of 40.7 µM and an EC50 [2] of 10.1 µM.
In the case of `NC(=O)c1cc([C@@H]2O[C@H](CO)[C@@H](O)[C@H]2O)sn1` [Example 2, 5-((2R,3R,4S,5R)-3,4-Dihydroxy-5-(hydroxymethyl)tetrahydrofuran-2-yl)isothiazole-3-carboxamide], the EC50 [1] is reported as 54.7 µM and the EC50 [2] is reported as 0.32 µM.
In the case of `CC(C)C(=O)OC[C@H]1O[C@@H](c2nc(C(N)=O)ns2)[C@H](O)[C@@H]1O` [Example 4, ((2R,3S,4R,5R)-5-(3-Carbamoyl-1,2,4-thiadiazol-5-yl)-3,4-dihydroxytetrahydrofuran-2-yl)methyl isobutyrate], the EC50 [1] is reported as 15.1 µM.
In the case of `NC(=O)c1nsc([C@@H]2O[C@H](CO)[C@@H](O)[C@H]2O)n1` [Example 1, 5-((2R,3R,4S,5R)-3,4-Dihydroxy-5-(hydroxymethyl)tetrahydrofuran-2-yl)-1,2,4-thiadiazole-3-carboxamide], the EC50 [1] is reported as 1.35 µM.
In the case of `CC(C)[C@H](N)C(=O)OC[C@H]1O[C@@H](c2nc(C(N)=O)ns2)[C@H](O)[C@@H]1O` [Example 7, ((2R,3S,4R,5R)-5-(3-Carbamoyl-1,2,4-thiadiazol-5-yl)-3,4-dihydroxytetrahydrofuran-2-yl)methyl valinate], the EC50 [1] is reported as 1.35 µM.
